Assay [1] concerns BNGR-A9. Put plainly: cAMP ELISA in BNGR-A9-expressing HEK293 cells. Conditions: 1 μM, 15 min, IBMX pretreatment (300 μM, 1 h). The assay is classed as cell-based, Bombyx mori. As to the method:
1. Measurement of cAMP accumulation
Cells were seeded in 24-well plates and incubated overnight. Prior to treatment, cells
were pre-treated with the phosphodiesterase inhibitor IBMX (300 μM) for 1 hour.
Subsequently, cells were treated with different Bombyx neuropeptides for 15 minutes.
The reaction was terminated by removing the medium, followed by the addition of
ice-cold PBS and a single wash. Cell lysis was performed, and cAMP formation was
assessed using a competitive binding technique based on an enzyme-linked
immunosorbent assay (ELISA) (Parameter cAMP assay, R&D, Minneapolis, USA)
following the manufacturer's instructions. The results were expressed as the fold
change in cAMP concentration compared to the control concentration in the
2. Determination of Glucose of hemolymph
Silkworm larvae were anesthetized by cooling on ice, after which hemolymph was
collected using a micropipette from an incision made at the abdominal leg.
Approximately 5 mg of phenylthiourea (to achieve a final concentration of 2.5% w/v)
was added to the hemolymph in a 1.5 ml Eppendorf tube to inhibit clotting.
Hemolymph samples from 10 insects were then centrifuged at 12,000 rpm for 10
minutes at 4 °C to sediment any particulates. The glucose concentration in the
hemolymph was determined using a glucose oxidase-peroxidase kit (Shanghai […]
by stimulation with 1μM BmnsSK or BmsSK for 15 min, and the cAMP level was determined […]
Background: ELISA stands for enzyme-linked immunosorbent assay.

Assay [2] in a line: Hemolymph trehalose determination. The assay is classed as in vivo, Bombyx mori. As to the method: Silkworm larvae were anesthetized by cooling on ice, after which hemolymph was collected using a micropipette from an incision made at the abdominal leg. Approximately 5 mg of phenylthiourea (to achieve a final concentration of 2.5% w/v) was added to the hemolymph in a 1.5 ml Eppendorf tube to inhibit clotting. Hemolymph samples from 10 insects were then centrifuged at 12,000 rpm for 10 min at 4 °C to sediment any particulates. For trehalose measurement, the hemolymph underwent pretreatment with trehalase (Megazyme, Chicago, US), following the manufacturer’s protocol. Subsequently, the sugar concentration in the hemolymph was assessed using a glucose oxidase–peroxidase kit (Shanghai Rongsheng Biotech, China).

Assay [3] relates to BNGR-A9. Put plainly: IP3 ELISA in BNGR-A9-expressing HEK293 cells. The assay is classed as cell-based, Bombyx mori. Conditions: 1 μM, 1 h. As to the method: Figure 6 Bombyx sulfated-sulfakinin mediated activation of BNGR-A9 via Gαq signaling pathway. (A and B) Effects of Gαq inhibitor FR900359 (1 μM) on the CRE-driven luciferase activities in BNGR-A9 expressing HEK293 (A) and BmN (B) cells. BNGR-A9 stable transfected cells were pretreated with FR900359 (1 μM) for 30 min and challenged with 100 nM BmsSK for 4 h. (C) Accumulation of IP3 in HEK293 cells expressing BNGR-A9 in response to Bombyx neuropeptides was assessed. Cells were pre-treated with serum-free DMEM for 1 h, followed by stimulation with 1 μM of the indicated Bombyx neuropeptides for 1 h. The level of IP3 in the supernatant was then determined using the IP3 immunoassay detection kit. (D, E) Effects of Gαq/PLC inhibitors on Flag-BNGR-A9 mediated increase of intracellular Ca^2+ level. Flag-BNGR-A9 expressing HEK293 (D) and BmN (E) cells were pretreated with Gαq inhibitorFR900359 (1 μM), U73122 (5 μM) for 30 min, and incubated with Fura-2 AM for 30 min, followed by challenging with 100 nM BmsSK. (F, G) effects of protein kinase A (PKA) inhibitor KT5720 on BmsSK initiated Ca^2+ in Flag-BNGR-A9-expressing cells. […] After 30 min incubation with Fura-2 AM, the cells were treated with 100 nM BmsSK, and detected with a fluorescence spectrometer. […] Data were analyzed by using a Student’s t-test (*p < 0.05; **p < 0.01). […]

Where no end group is shown, it is not given here. [ ]: non-standard residue; d: D form. sY = N[C@@H](Cc1ccc(OS(=O)(=O)O)cc1)C(=O)O

Consider “BmsSK: Bombyx mori sulfated-sulfakinin, synthetic; sulfated version of GDDTFDD^8YGHLRF-NH2 (GDDTFDD[sY]GHLRF-NH2; N-terminus assumed; SMILES CC(C)C[C@H](NC(=O)[C@H](Cc1c[nH]cn1)NC(=O)CNC(=O)[C@H](Cc1ccc(OS(=O)(=O)O)cc1)NC(=O)[C@H](CC(=O)O)NC(=O)[C@H](CC(=O)O)NC(=O)[C@H](Cc1ccccc1)NC(=O)[C@@H](NC(=O)[C@H](CC(=O)O)NC(=O)[C@H](CC(=O)O)NC(=O)CN)[C@@H](C)O)C(=O)N[C@@H](CCCNC(=N)N)C(=O)N[C@@H](Cc1ccccc1)C(N)=O)”, for which the “Intracellular cAMP level” value with BNGR-A9 [1] is given as “remained unchanged”. The Hemolymph trehalose level result in assay [2] (BmsSK final 10 nM, 24 h after EGFP dsRNA injection, hemolymph collected 24 h later) is reported as “significant increase in trehalose levels”; in assay [2] (following BmsSK injection (restated in discussion)) it was “significant rise in circulating hemolymph trehalose”. The “Intracellular IP3 level” value in the assay on BNGR-A9 [3] is given as “significant elevation”.

For the origin of these results see PMC11190223, “Identification of sulfakinin receptor regulating feeding behavior and hemolymph trehalose homeostasis in the silkworm, Bombyx mori” (Scientific Reports, 2024).
